Experimental data reported in EP1156056A1, “5-GLYCOSYLOXY-6-HYDROXYNAPHTHO 2,3-f]QUINOLINE-7,12-DIONE HAVING ANTICANCER ACTIVITIES” (ZAIDAN HOJIN BISEIBUTSU KAGAKU KENKYU KAI, priority 1999, dated 2000).
Values after ≈ are worked out from the molar mass of the structure shown.

Tests used:
Experiment in all cases: Inhibition of proliferation of cancer cells in culture (Test Examples 1 and 3)
Format in all cases: cell-based
[1] = system: human acute promyeloleukemia (HL60); settings: HL-60, Test Example 3, Compounds N to T used as trifluoroacetate, read-out: IC50
Method: (§1) A culture medium for cancer cells was put into test tubes. To the culture medium in each tube, there was transplanted each of such various mouse cancer cells or human cancer cells as shown in Table 1 below. The cells so transplanted were cultivated under the conditions at 37°C in an air atmosphere containing 5 % CO2. To the medium containing the cancer cells so cultivated, there was added said Compounds A, B, D, E or F of this invention at different concentrations, as the test compound. […] As the comparative compound, adriamycin now clinically used was tested to repeat the test in the same way.
(§2) Namely, they are mouse colon cancer (colon 26), mouse B-cell lymphoma (LB32T), mouse lymphoma (L-1210), human cervical cancer (HeLa), human acute promyeloleukemia (HL60), human prostatic cancer (PC3), human pudendal squamous cell carcinoma (A431), human pulmonary carcinoma (PC6), human mastocarcinoma (MCF7), human esophageal carcinoma (TT), human prostatic cancer (LNcap) and human colon cancer (DLD-1).
(§3) The test method and the nature of cancer cells to be tested are the same as those in Test Example 1 given hereinbefore. In this Test Example 3, however, eight kinds of cancer cells indicated in Table 3 below are used, among the twelve kinds of cancer cells which were used in Test Example 1.
(§4) As the test results of measurement, the evaluated values of the concentration of each test compound which could inhibit the proliferation of cancer cells by 50 % (namely, 50 % inhibitory concentration:IC50, µg/ml) are given in Table 3.

[2] = system: human cervical cancer (HeLa); settings: Test Example 3, Compounds N to T used as trifluoroacetate, read-out: IC50
Method: as §1, §2, §3, §4

[3] = system: human colon cancer (DLD-1); settings: for IC50: Homo sapiens, Test Example 3, Compounds N to T used as trifluoroacetate, read-out: IC50
Method: as §1, §2, §3, §4

[4] = system: human prostatic cancer (LNcap); settings: LNCap, Test Example 3, Compounds N to T used as trifluoroacetate, read-out: IC50
Method: as §1, §2, §3, §4

[5] = system: human prostatic cancer (PC3); settings: for IC50: Homo sapiens, Test Example 3, Compounds N to T used as trifluoroacetate, read-out: IC50
Method: as §1, §2, §3, §4

[6] = system: mouse B-cell lymphoma (LB32T); settings: Test Example 3, Compounds N to T used as trifluoroacetate, read-out: IC50
Method: as §1, §2, §3, §4

[7] = system: mouse colon cancer (colon 26); settings: Colon26, Test Example 3, Compounds N to T used as trifluoroacetate, read-out: IC50
Method: as §1, §2, §3, §4

[8] = system: mouse lymphoma (L-1210); settings: L1210, Test Example 3, Compounds N to T used as trifluoroacetate, read-out: IC50
Method: as §1, §2, §3, §4

[9] = Test Example 3, relative to adriamycin

C[C@@H]1O[C@H](Oc2c(OC(=O)CCN)c3c(c4cccnc24)C(=O)c2ccccc2C3=O)[C@@H](F)[C@H](OC(=O)CCN)[C@@H]1OC(=O)CCN [Compound T, 5-[3,4-di-O-(3-aminopropionyl)-2,6-dideoxy-2-fluoro-β-L-galactopyranosyloxy)-6-(3-aminopropionyloxy)-naphtho[2,3-f]quinoline-7,12-dione]
IC50 [1]: 0.78 µg/mL (≈ 1.2 µM)
IC50 [2]: 0.15 µg/mL (≈ 0.23 µM)
IC50 [3]: 0.45 µg/mL (≈ 0.69 µM)
IC50 [4]: 0.57 µg/mL (≈ 0.873 µM)
IC50 [5]: 0.65 µg/mL (≈ 0.996 µM)
IC50 [6]: 0.8 µg/mL (≈ 1.23 µM)
IC50 [7]: 0.55 µg/mL (≈ 0.843 µM)
IC50 [8]: 1.17 µg/mL (≈ 1.79 µM)

C[C@@H]1O[C@H](Oc2c(O)c3c(c4cccnc24)C(=O)c2ccccc2C3=O)[C@@H](F)[C@H](OC(=O)CCN)[C@@H]1O [Compound R, 5-[3-O-(3-aminopropionyl)-2,6-dideoxy-2-fluoro-β-L-galactopyranosyloxy]-6-hydroxynaphtho [2,3-f]quinoline-7,12-dione]
IC50 [1]: 0.54 µg/mL (≈ 1.06 µM)
IC50 [2]: 0.29 µg/mL (≈ 0.568 µM)
IC50 [3]: 0.18 µg/mL (≈ 0.353 µM)
anticancer activity against DLD-1, times higher than that of adriamycin [3, 9]: 19 times
IC50 [4]: 0.47 µg/mL (≈ 0.921 µM)
IC50 [5]: 0.39 µg/mL (≈ 0.764 µM)
anticancer activity against PC3, times higher than that of adriamycin [5, 9]: 2.9 times
IC50 [6]: 0.68 µg/mL (≈ 1.33 µM)
IC50 [7]: 0.46 µg/mL (≈ 0.901 µM)
IC50 [8]: 0.72 µg/mL (≈ 1.41 µM)

C[C@@H]1O[C@@H](Oc2c(O)c3c(c4cccnc24)C(=O)c2ccccc2C3=O)[C@@H](F)[C@H](OC(=O)CCN)[C@@H]1OC(=O)CCN [Compound Q, 5-[3,4-di-O-(3-aminopropionyl)-2,6-dideoxy-2-fluoro-α-L-galactopyranosyloxy]-6-hydroxynaphtho [2,3-f]quinoline-7,12-dione]
IC50 [1]: 1.09 µg/mL (≈ 1.87 µM)
IC50 [2]: 1.7 µg/mL (≈ 2.92 µM)
IC50 [3]: 0.71 µg/mL (≈ 1.22 µM)
IC50 [4]: 1.54 µg/mL (≈ 2.65 µM)
IC50 [5]: 0.79 µg/mL (≈ 1.36 µM)
IC50 [6]: 0.78 µg/mL (≈ 1.34 µM)
IC50 [7]: 1.43 µg/mL (≈ 2.46 µM)
IC50 [8]: 2.09 µg/mL (≈ 3.59 µM)

C[C@@H]1O[C@@H](Oc2c(O)c3c(c4cccnc24)C(=O)c2ccccc2C3=O)[C@H](F)[C@H](OC(=O)CCN)[C@@H]1OC(=O)CCN [Compound P, 5-[3,4-di-O-(3-aminopropionyl)-2,6-dideoxy-2-fluoro-α-L-talopyranosyloxy]-6-hydroxynaphtho [2,3-f]quinoline-7,12-dione]
IC50 [1]: 0.6 µg/mL (≈ 1.03 µM)
IC50 [2]: 0.89 µg/mL (≈ 1.53 µM)
IC50 [3]: 0.46 µg/mL (≈ 0.791 µM)
IC50 [4]: 1.46 µg/mL (≈ 2.51 µM)
IC50 [5]: 0.55 µg/mL (≈ 0.946 µM)
IC50 [6]: 0.82 µg/mL (≈ 1.41 µM)
IC50 [7]: 0.91 µg/mL (≈ 1.56 µM)
IC50 [8]: 1.27 µg/mL (≈ 2.18 µM)

C[C@@H]1O[C@H](Oc2c(O)c3c(c4cccnc24)C(=O)c2ccccc2C3=O)[C@@H](F)[C@H](OC(=O)CCN)[C@@H]1OC(=O)CCN [Compound S, 5-[3,4-di-O-(3-aminopropionyl)-2,6-dideoxy-2-fluoro-β-L-galactopyranosyloxy]-6-hydroxynaphtho[2,3-f] quinoline-7,12-dione]
IC50 [1]: 0.68 µg/mL (≈ 1.17 µM)
IC50 [2]: 0.64 µg/mL (≈ 1.1 µM)
IC50 [3]: 0.42 µg/mL (≈ 0.722 µM)
IC50 [4]: 0.52 µg/mL (≈ 0.894 µM)
IC50 [5]: 0.55 µg/mL (≈ 0.946 µM)
IC50 [6]: 0.79 µg/mL (≈ 1.36 µM)
IC50 [7]: 0.65 µg/mL (≈ 1.12 µM)
IC50 [8]: 1.13 µg/mL (≈ 1.94 µM)
